Assay results as given in ChEMBL document CHEMBL5215009, “Discovery of Pan-peroxisome Proliferator-Activated Receptor Modulators from an Endolichenic Fungus, Daldinia childiae” (J Nat Prod, 2022).
Values belong to the compound of their own block, whether it stands above or below them. Activity calls are given as the source filed them. The calls are words filed in the database; no cut-off is given here.

Key:
Mesenchymal stem cells [1] = assay: Induction of adipogenesis in differentiated human BMMSC cells assessed as increase in adiponectin level at 30 uM in presence of IDX by ELISA; format: functional, cell-based
Mesenchymal stem cells [2] = assay: Induction of adipogenesis in differentiated human BMMSC cells assessed as fold increase in adiponectin level at 30 uM in presence of IDX by ELISA relative to control; format: functional
Mesenchymal stem cells [3] = assay: Induction of adipogenesis in differentiated human BMMSC cells assessed as fold increase in adiponectin level in presence of IDX by ELISA; format: functional, cell-based
Mesenchymal stem cells [4] = assay: Induction of adipogenesis in differentiated human BMMSC cells assessed as increase in number and size of lipid droplets at 30 uM in presence of IDX by Oil red O staining based inverted microscope analysis; format: functional, cell-based
[5] = biological target: T1, Peroxisome proliferator-activated receptor alpha (Homo sapiens) (UniProt Q07869); assay: Displacement of fluormone pan-PPARgreen from PPARalpha (unknown origin) at 30 uM by TR-FRET based competitive binding assay relative to control
T1 sequence (whole entry): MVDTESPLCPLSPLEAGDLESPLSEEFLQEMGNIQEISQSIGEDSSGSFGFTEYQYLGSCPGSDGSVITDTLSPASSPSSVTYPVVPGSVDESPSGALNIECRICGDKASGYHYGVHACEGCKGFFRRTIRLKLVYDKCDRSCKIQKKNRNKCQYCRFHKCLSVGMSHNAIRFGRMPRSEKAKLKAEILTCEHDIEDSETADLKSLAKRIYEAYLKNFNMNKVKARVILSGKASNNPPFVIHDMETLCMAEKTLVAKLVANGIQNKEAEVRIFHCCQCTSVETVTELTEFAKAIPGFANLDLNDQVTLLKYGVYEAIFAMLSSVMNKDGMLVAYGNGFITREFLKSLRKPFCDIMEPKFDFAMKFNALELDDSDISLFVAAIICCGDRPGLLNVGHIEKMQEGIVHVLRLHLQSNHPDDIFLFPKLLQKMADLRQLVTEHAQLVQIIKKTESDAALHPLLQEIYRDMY

[6] = biological target: T2, Peroxisome proliferator-activated receptor gamma (Homo sapiens) (UniProt P37231); assay: Displacement of fluormone pan-PPARgreen from PPARgamma (unknown origin) at 30 uM by TR-FRET based competitive binding assay relative to control; conditions: filed as partial agonist
T2 sequence (whole entry): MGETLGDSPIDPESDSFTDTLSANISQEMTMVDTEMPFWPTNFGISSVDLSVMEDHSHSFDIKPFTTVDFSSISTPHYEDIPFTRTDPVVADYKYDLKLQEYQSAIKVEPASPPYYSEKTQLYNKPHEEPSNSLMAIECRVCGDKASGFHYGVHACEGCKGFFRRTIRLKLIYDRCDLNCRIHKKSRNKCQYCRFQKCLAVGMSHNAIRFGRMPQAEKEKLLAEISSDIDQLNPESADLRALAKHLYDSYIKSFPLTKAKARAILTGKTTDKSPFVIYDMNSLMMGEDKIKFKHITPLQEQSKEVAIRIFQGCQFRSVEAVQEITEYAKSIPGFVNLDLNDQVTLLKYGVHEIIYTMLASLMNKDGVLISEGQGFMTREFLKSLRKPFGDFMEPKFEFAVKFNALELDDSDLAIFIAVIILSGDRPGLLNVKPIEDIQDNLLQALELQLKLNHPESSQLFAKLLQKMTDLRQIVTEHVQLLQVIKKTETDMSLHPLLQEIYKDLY

[7] = biological target: T3, Peroxisome proliferator-activated receptor delta (Homo sapiens) (UniProt Q03181); assay: Displacement of fluormone pan-PPARgreen from PPARdelta (unknown origin) at 30 uM by TR-FRET based competitive binding assay relative to control; conditions: filed as partial agonist
T3 sequence (whole entry): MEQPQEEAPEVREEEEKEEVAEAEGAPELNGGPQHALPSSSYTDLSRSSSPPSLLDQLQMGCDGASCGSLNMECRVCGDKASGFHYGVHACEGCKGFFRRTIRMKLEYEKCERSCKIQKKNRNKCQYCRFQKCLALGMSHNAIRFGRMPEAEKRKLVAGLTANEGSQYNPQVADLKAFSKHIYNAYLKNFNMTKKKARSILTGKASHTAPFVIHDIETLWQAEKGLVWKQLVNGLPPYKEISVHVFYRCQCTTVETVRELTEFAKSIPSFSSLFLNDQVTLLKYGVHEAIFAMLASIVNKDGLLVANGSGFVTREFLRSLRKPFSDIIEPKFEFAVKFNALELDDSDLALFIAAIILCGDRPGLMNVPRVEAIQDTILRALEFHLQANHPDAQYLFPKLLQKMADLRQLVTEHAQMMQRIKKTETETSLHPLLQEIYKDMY

[8] = biological target: T4, Peroxisome proliferator-activated receptor alpha (Homo sapiens, UniProt Q07869); assay: Binding affinity to PPARalpha (unknown origin) assessed as inhibition constant by Cheng-Prusoff equation analysis
T4 sequence (Q07869 whole entry): T1 sequence (whole entry)

[9] = biological target: T5, Peroxisome proliferator-activated receptor gamma (Homo sapiens, UniProt P37231); assay: Binding affinity to PPARgamma (unknown origin) assessed as inhibition constant by Cheng-Prusoff equation analysis
T5 sequence (P37231 whole entry): T2 sequence (whole entry)

[10] = biological target: T6, Peroxisome proliferator-activated receptor delta (Homo sapiens, UniProt Q03181); assay: Binding affinity to PPARdelta (unknown origin) assessed as inhibition constant by Cheng-Prusoff equation analysis
T6 sequence (Q03181 whole entry): T3 sequence (whole entry)

[11] = biological target: T2, Peroxisome proliferator-activated receptor gamma (Homo sapiens); assay: Partial agonist activity at PPARgamma in human BMMSC cells assessed as inhibition of pioglitazone-induced adiponectin synthesis measured after 5 days by ELISA; format: cell-based; conditions: filed as partial agonist, dose 10-30 µM, time 5.0 day, DDE = dose-dependent effect
[12] = biological target: T4, Peroxisome proliferator-activated receptor alpha; assay: Partial agonist activity at PPARalpha (unknown origin) assessed as increase in PRIP/RAP250 coactivator peptide requirement by Lanthascreen TR-FRET assay
[13] = biological target: T5, Peroxisome proliferator-activated receptor gamma; assay: Partial agonist activity at PPARgamma (unknown origin) assessed as increase in fluorescein labeled PRIP/RAP250 coactivator peptide requirement by Lanthascreen TR-FRET assay
[14] = biological target: T2, Peroxisome proliferator-activated receptor gamma (Homo sapiens); assay: Partial agonist activity at PPARgamma (unknown origin) assessed as increase in fluorescein labeled SRC-1 coactivator peptide requirement by Lanthascreen TR-FRET assay; conditions: filed as partial agonist
[15] = biological target: T2, Peroxisome proliferator-activated receptor gamma (Homo sapiens); assay: Partial agonist activity at PPARgamma (unknown origin) assessed as increase in fluorescein labeled SRC-2 coactivator peptide requirement by Lanthascreen TR-FRET assay; conditions: filed as partial agonist
[16] = biological target: T6, Peroxisome proliferator-activated receptor delta; assay: Partial agonist activity at PPARdelta (unknown origin) assessed as increase in fluorescein labeled PRIP/RAP250 coactivator peptide requirement by Lanthascreen TR-FRET assay
[17] = biological target: T7, Retinoic acid receptor RXR-alpha (Homo sapiens) (UniProt P19793); assay: Agonist activity at RXRalpha-LBD (unknown origin) assessed as transactivation by measuring increase in fluorescein-labelled coactivator PGC-1alpha peptide recruitment at 60 uM by Lanthascreen TR-FRET assay relative to control; conditions: filed as agonist
T7 sequence (whole entry): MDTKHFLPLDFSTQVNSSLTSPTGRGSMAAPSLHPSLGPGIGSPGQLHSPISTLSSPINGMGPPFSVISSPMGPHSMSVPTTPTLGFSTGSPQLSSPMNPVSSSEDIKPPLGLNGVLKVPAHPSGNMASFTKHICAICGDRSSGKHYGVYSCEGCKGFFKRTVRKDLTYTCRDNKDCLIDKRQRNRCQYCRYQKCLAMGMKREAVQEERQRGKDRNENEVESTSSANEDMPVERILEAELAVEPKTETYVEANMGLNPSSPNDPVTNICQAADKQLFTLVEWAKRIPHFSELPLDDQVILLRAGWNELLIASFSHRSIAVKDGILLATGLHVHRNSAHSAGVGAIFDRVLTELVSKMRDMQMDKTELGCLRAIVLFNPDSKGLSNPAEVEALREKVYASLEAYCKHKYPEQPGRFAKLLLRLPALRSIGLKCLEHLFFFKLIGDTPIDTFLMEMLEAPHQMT

[18] = biological target: T8, Retinoic acid receptor RXR-alpha (Homo sapiens, UniProt P19793); assay: Agonist activity at RXRalpha-LBD (unknown origin) assessed as transactivation by measuring increase in fluorescein-labelled coactivator PGC-1alpha peptide recruitment by Lanthascreen TR-FRET
T8 sequence (P19793 whole entry): T7 sequence (whole entry)

Mesenchymal stem cells [19] = assay: Induction of adipogenesis in differentiated human BMMSC cells assessed as fold increase in adiponectin level at 5 uM in presence of IDX by ELISA relative to control; format: functional

Compound: O=C1CCC(O)c2cccc(O)c21 (stereo not given)
Activity (Mesenchymal stem cells [1]): Active

Compound: CC(=O)c1c(O)cccc1O
Activity (Mesenchymal stem cells [1]): Active

EC50 (Mesenchymal stem cells [3]): 30.8 µM
Activity ([5]; filed as partial agonist): 56.5%
Activity [6]: 52%
Activity [7]: 51.8%
Ki [8]: 9.4 µM
Ki [9]: 19.1 µM
Ki [10]: 18.8 µM
inhibition [11]: Dde
EC50 [12]: 58.2 µM
EC50 [13]: 50.8 µM
Activity [14]: Active
Activity [15]: Active
EC50 [16]: 53.9 µM
Activity [17]: 53.2%
EC50 [18]: 52.9 µM
Compound: COc1cccc2ccc(-c3cc(-c4ccc5cccc(OC)c5c4O)c4cccc(OC)c4c3O)c(O)c12
fold change (FC) (Mesenchymal stem cells [2]): 4.1
Activity (Mesenchymal stem cells [4]): Active

EC50 (Mesenchymal stem cells [3]): 15.2 µM
Activity [5]: 37.6%
Activity [6]: 61.2%
Activity [7]: 42.1%
Ki [9]: 6.6 µM
inhibition [11]: Dde
Compound: COc1cccc2ccc(-c3ccc(O)c4c(OC)cccc34)c(O)c12
fold change (FC) (Mesenchymal stem cells [2]): 6
Activity (Mesenchymal stem cells [4]): Active

Compound: Cc1cc(=O)c2c(O)cccc2o1
Activity (Mesenchymal stem cells [1]): Active

Compound: COc1cccc2ccc(-c3ccc4cccc(OC)c4c3O)c(O)c12
Activity (Mesenchymal stem cells [1]): Active

Compound: COc1cccc2c(-c3cc(-c4ccc(O)c5c(OC)cccc45)c4cccc(OC)c4c3O)ccc(O)c12
Activity (Mesenchymal stem cells [1]): Active

Compound: COc1cccc2c(-c3ccc(O)c4c(OC)cccc34)ccc(O)c12
Activity (Mesenchymal stem cells [1]): Active

Compound: COc1cccc2ccc(-c3cc(-c4ccc(O)c5c(OC)cccc45)c(O)c4c(OC)cccc34)c(O)c12
Activity (Mesenchymal stem cells [1]): Active

EC50 (Mesenchymal stem cells [3]): 0.79 µM
Compound: CCc1ccc(CCOc2ccc(CC3SC(=O)NC3=O)cc2)nc1 (stereo not given) [PIOGLITAZONE]

Compound: COc1ccc(Cl)cc1C(=O)NCCc1ccc(S(=O)(=O)NC(=O)NC2CCCCC2)cc1 [GLYBURIDE]
fold change (FC) (Mesenchymal stem cells [19]): 4.93

Compound: COc1cccc2ccc(-c3cc(-c4ccc(O)c5c(OC)cccc45)c4cccc(OC)c4c3O)c(O)c12
Activity (Mesenchymal stem cells [1]): Active
